In patent US10130647B2, “Use of ginsenoside M1 for preventing or treating silicosis” (WELLHEAD […]., priority 2015, dated 2018):

Tests used:
[1] = tested on: mouse J774A.1 macrophages; experiment: Silica crystal-induced IL-1β production in LPS-treated J774A.1 macrophages (ELISA); type: cell-based; settings: M1 30 min, then 1 μg/ml LPS, then 200 μg/ml silica crystal 24 h, FIG. 1, p<0.001 vs silica crystals alone
Procedure: The levels of IL-1β in the culture medium were measured by ELISA. *** indicates a significant difference at the level of p<0.001 compared to […].
In FIG. 1, J774A.1 macrophages (1×10^5 cells/500 μl medium/well) were incubated for 30 min with or without Ginsenoside M1, then for 2 h with or without 1 μg/ml LPS (from Escherichia coli 0111:B4, purchased from Sigma, St. Louis, Mo.) in the continued presence or absence of Ginsenoside M1, and then for 24 h with or without 200 μg/ml silica crystal (purchased from InvivoGen, San Diego, Calif.). The levels of IL-1β in the culture medium were measured by ELISA.
(§1) For ELISA assay, 50 μl of biotinylated antibody reagent and 50 μl of culture medium were added to an anti-IL-1β, TNF-α or IL-6 precoated stripwell plate, and incubated at room temperature for 2 h. After washing the plate three times with washing buffer, 100 μl of diluted streptavidin-HRP (horseradish peroxidase) concentrate was added to each well and incubated at room temperature for 30 min. The washing process was repeated; then 100 μl of a premixed tetramethylbenzidine substrate solution was added to each well and developed at room temperature in the dark for 30 min Following the addition of 100 μl of provided stop solution to each well to stop the reaction, the absorbance of the plate was measured by a microplate reader at a 450 nm wavelength. […]

[2] = tested on: LPS-primed THP-1 macrophages; experiment: Silica crystal-induced cytokine production in LPS-primed THP-1 macrophages, Ginsenoside M1 added after LPS priming (ELISA); type: cell-based, human; settings: THP-1 primed 5 h with 1 μg/ml LPS, then M1 30 min, then 200 μg/ml silica crystal 24 h
Procedure: The levels of IL-1β in the culture medium were measured by ELISA. ** and *** indicates a significant difference at the level of p<0.01 and p<0.001, respectively compared to silica crystal alone.
The levels of TNF-α in the culture medium were measured by ELISA. ** indicates a significant difference at the level of p<0.01 compared to silica crystal alone.
The levels of IL-6 in the culture medium were measured by ELISA. *** indicates a significant difference at the level of p<0.001 compared to silica crystal alone.
(§2) The mouse macrophages cell line J774A.1 and human monocytic leukemia cell line THP-1 was obtained from the American Type Culture Collection (Rockville, Md.) and cultured in RPMI 1640 medium supplemented with 10% heat-inactivated fetal bovine serum (FBS) and 2 mM L-glutamine (all from Life Technologies, Carlsbad, Calif.) at 37° C. in a 5% CO2 incubator. To induce monocyte-to-macrophage differentiation, THP-1 cells were cultured for 48 h in RPMI-1640 medium supplemented with 100 nM phorbol 12-myristate 13-acetate (Sigma-Aldrich).
In FIG. 6-8, THP-1 macrophages (1×10^5 cells/500 μl medium/well) were incubated for 5 h with or without 1 μg/ml LPS, then for 30 min with or without Ginsenoside M1 in the continued presence or absence of LPS, and then for 24 h with or without 200 μg/ml silica crystal. The levels of IL-1β (FIG. 6), TNF-α (FIG. 7) and IL-6 (FIG. 8) in the culture medium were measured by ELISA.
as §1, with “After washing the plate three times with washing buffer, 100 μl of diluted streptavidin-HRP (horseradish peroxidase) concentrate was added to each well and incubated at room temperature for 30 min.” left out

[3] = tested on: mouse J774A.1 macrophages; experiment: LPS-induced NLRP3 and proIL-1β expression in J774A.1 macrophages (Western blot); type: cell-based; settings: M1 30 min, then 1 μg/ml LPS 6 h, FIG. 2
Procedure: The levels of NLRP3 and […] in the cell lysates were measured by Western blot.
In FIG. 2, J774A.1 macrophages (2×10^6 cells/2 ml medium/dish) were incubated for 30 min with or without Ginsenoside M1, then for 6 h with or without 1 μg/ml LPS in the continued presence or absence of Ginsenoside M1. The levels of NLRP3 and proIL-1β in the cell lysates were measured by Western blot. In brief, After treatment, the cells were collected and lysed at 4° C. in lysis buffer (25 mM Tris-HCl, pH 7.5, 100 mM NaCl, 2.5 mM EDTA, 2.5 mM EGTA, 20 mM NaF, 1 mM Na3VO4, 20 mM sodium β-glycerophosphate, 10 mM sodium pyrophosphate, 0.5% Triton X-100) containing protease inhibitor cocktail (Sigma, St. Louis, Mo.), then the whole cell lysate was separated by SDS-PAGE and electrotransferred to a PVDF membrane. The membranes were incubated for 1 h at room temperature in blocking solution (5% nonfat milk in phosphate buffered saline with 0.1% Tween 20), then were incubated for 2 h at room temperature with NLRP3 or proIL-1β antibody in blocking solution. […]
J774A.1 macrophages were incubated for 30 min with or without Ginsenoside M1, then for 6 h with or without 1 μg/ml LPS in the continued presence or absence of Ginsenoside M1. The levels of NLRP3 and proIL-1β in the cell lysates were measured by Western blot.

human THP-1 macrophages = experiment: Silica crystal-induced cytokine production in THP-1 macrophages, Ginsenoside M1 added before LPS (ELISA); type: cell-based; settings: M1 30 min, then 1 μg/ml LPS 5 h, then 200 μg/ml silica crystal 24 h
Procedure: The levels of IL-1β in the culture medium were measured by ELISA. ** indicates a significant difference at the level of p<0.01 compared to silica crystal alone.
The levels of TNF-α in the culture medium were measured by ELISA. ** and *** indicates a significant difference at the level of p<0.01 and p<0.001, respectively compared to silica crystal alone.
The levels of IL-6 in the culture medium were measured by ELISA. * and *** indicates a significant difference at the level of p<0.05 and p<0.001, respectively compared to silica crystal alone.
as §2
In FIG. 3-5, THP-1 macrophages (1×10^5 cells/500 μl medium/well) were incubated for 30 min with or without Ginsenoside M1, then for 5 h with or without 1 μg/ml LPS in the continued presence or absence of Ginsenoside M1, and then for 24 h with or without 200 μg/ml silica crystal (purchased from InvivoGen, San Diego, Calif.). The levels of IL-1β (FIG. 3), TNF-α (FIG. 4) and IL-6 (FIG. 5) in the culture medium were measured by ELISA.
as §1, with “After washing the plate three times with washing buffer, 100 μl of diluted streptavidin-HRP (horseradish peroxidase) concentrate was added to each well and incubated at room temperature for 30 min.” left out

Male C57BL/6 mice = experiment: Silica crystal-induced silicosis in mice, BALF analysis; type: in vivo, mouse; settings: 60 mg/kg oral gavage daily day 0, 1, 2
Procedure: In FIG. 9-12, the animal experiments were conducted in accordance with the guidelines of the National Institutes of Health and approved by the Institutional Animal Care and Use Committee of National Ilan University. Male C57BL/6 mice were purchased from the National Laboratory Animal Center (Taipei, Taiwan). The animals were provided a chow diet and water ad libitum under conditions of 22-24° C., 40-70% relative humidity, and a 12 h light-dark cycle. Ginsenoside M1 (60 mg/kg body weight) was oral administered daily by gavage at day 0, 1 and 2. Silicosis in mice was induced by intratracheally exposed to 40 μl aqueous suspensions of 200 μg of silica crystals in PBS daily at day 0, 1 and 2 (n=6). Each day, mice exposed to silica crystals 4 h after Ginsenoside M1 administration. Control mice received PBS. After 4 h of the last silica crystals exposure, all mice were sacrificed using neck breaking, and a bronchoalveolar lavage was carried out by repeatedly instillating and withdrawing 1 ml of 1% BSA/PBS solution three consecutive times. The levels of IL-1β and IL-6 in the bronchoalveolar lavage fluid (BALF) were measured by ELISA. The total cell number in the BALF was counted by a hematocytometer and protein concentration in the BALF was determined by protein assay dye.
For ELISA assay, 50 μl of biotinylated antibody reagent and 50 μl of culture medium were added to an anti-IL-1β, TNF-α or IL-6 precoated stripwell plate, and incubated at room temperature for 2 h. After washing the plate three times with washing buffer, 100 μl of diluted streptavidin-HRP (horseradish peroxidase) concentrate was added to each well and incubated at room temperature for 30 min. The washing process was repeated; then 100 μl of a premixed tetramethylbenzidine substrate solution was added to each well and developed at room temperature in the dark for 30 min Following the addition of 100 μl of provided stop solution to each well to stop the reaction, the absorbance of the plate was measured by a microplate reader at a 450 nm wavelength.

20-O-β-D-glucopyranosyl-20(S)-protopanaxadiol [Ginsenoside M1]
IL-1β secretion in the culture medium [1]: reduced | IL-1β production ([2]; FIG. 6, p<0.01 and p<0.001): reduced | TNF-α production ([2]; FIG. 7, p<0.01): reduced | IL-6 production ([2]; FIG. 8, p<0.001): reduced | level of NLRP3 in the cell lysates [3]: reduced | level of proIL-1β in the cell lysates [3]: reduced | IL-1β production (human THP-1 macrophages; FIG. 3, p<0.01): reduced | TNF-α production (human THP-1 macrophages; FIG. 4, p<0.01 and p<0.001): reduced | IL-6 production (human THP-1 macrophages; FIG. 5, p<0.05 and p<0.001): reduced | silica crystal-induced IL-1β production in the murine BALF (Male C57BL/6 mice; intratracheal 200 μg silica crystals 4 h after dosing, FIG. 9, p<0.001): significantly reduced | silica crystal-induced IL-6 production in the murine BALF (Male C57BL/6 mice; intratracheal 200 μg silica crystals 4 h after dosing, FIG. 10, p<0.001): significantly reduced | silica crystal-induced increase of total cell number in BALF (Male C57BL/6 mice; intratracheal 200 μg silica crystals, hematocytometer, FIG. 12, p<0.01): significantly inhibited | silica crystal-induced increase of total protein concentration in BALF (Male C57BL/6 mice; intratracheal 200 μg silica crystals, protein assay dye, FIG. 11, p<0.001): significantly inhibited
